pKi: −log10 of the molar value.

This test deals with hNOX1 (Homo sapiens (Human), UniProt Q9Y5S8). Nature of the test: ROS production measurement on hNOX1 membranes (Amplex Red fluorescence assay, assay 1). Type of test: biochemical. The conditions noted are these: assay 1: membranes from CHO cells overexpressing hNox1, Amplex Red/HRP fluorescence, NADPH 30 μM; non linear regression (GraphPad Prism); read-out: Nox1 inhibitory constant Ki. As for the experimental part: Reactive oxygen species (ROS) production generated by hNOX1 enzyme was measured by fluorescence in both cellular and membrane-based assays using the Amplex® Red reagent. In the presence of horseradish peroxidase (HRP), the Amplex® Red reagent (10-acetyl-3,7-dihydroxyphenoxazine, AR), which is a colorless and nonfluorescent derivative of dihydroresorufin, reacts with H2O2 with a 1:1 stoichiometry to produce highly fluorescent resorufin at an excitation and emission wavelengths of 544 nm and 590 nm, respectively.
Chain of hNOX1 (Q9Y5S8 whole entry): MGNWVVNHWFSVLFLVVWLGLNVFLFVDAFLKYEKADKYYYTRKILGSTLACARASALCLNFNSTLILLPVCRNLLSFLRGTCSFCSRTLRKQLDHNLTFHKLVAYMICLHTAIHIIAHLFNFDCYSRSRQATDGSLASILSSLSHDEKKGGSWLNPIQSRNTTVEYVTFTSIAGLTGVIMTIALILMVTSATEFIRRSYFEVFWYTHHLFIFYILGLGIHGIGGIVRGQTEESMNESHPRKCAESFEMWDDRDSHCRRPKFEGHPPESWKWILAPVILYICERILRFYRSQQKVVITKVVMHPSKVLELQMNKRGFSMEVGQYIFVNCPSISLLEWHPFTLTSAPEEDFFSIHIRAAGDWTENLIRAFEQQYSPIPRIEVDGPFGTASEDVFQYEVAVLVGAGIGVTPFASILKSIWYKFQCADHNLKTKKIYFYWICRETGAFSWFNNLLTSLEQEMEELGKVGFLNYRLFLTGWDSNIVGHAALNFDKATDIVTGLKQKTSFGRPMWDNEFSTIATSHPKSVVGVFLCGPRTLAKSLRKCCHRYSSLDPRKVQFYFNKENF
Chain of hNOX1 (P13498 whole entry partner): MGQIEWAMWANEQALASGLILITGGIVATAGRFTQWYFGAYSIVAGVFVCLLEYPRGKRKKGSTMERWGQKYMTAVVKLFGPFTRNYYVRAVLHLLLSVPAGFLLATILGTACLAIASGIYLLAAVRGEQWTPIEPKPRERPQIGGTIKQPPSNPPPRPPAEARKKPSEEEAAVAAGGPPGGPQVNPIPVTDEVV
After resuspension in sonication buffer (11% sucrose, 120 mM NaCl, 1 mM EGTA in PBS, pH 7.4), cells were broken by sonication and centrifuged (200 g, 10 min). The supernatant was layered onto a 17/40% (w/v) discontinuous sucrose gradient and centrifuged (150,000 g for 30 min). Membrane fractions were collected from the 17/40% interface, aliquoted in 10 μl samples and were stored at −80° C. Protein concentration was determined with Bradford reagent. Flavin Adenine Dinucleotide (FAD) (catalog # F6625-500MG), MgCl2 (catalog # M8266-100G), Phosphatidic Acid (PA) (catalog # P3591-50MG) were purchased from Sigma-Aldrich. […] NADPH (catalog #A1395, 0500) was purchased from Applichem. Amplex red (AR) (catalog # A22177) was purchased from Invitrogen. […] FLUOstar OPTIMA microplate reader was supplied by BMG Labtech (Germany). Zephyr® Compact Liquid Handling Workstation was supplied by PerkinElmer (Germany).
Assay 1: ROS Production Measurement on hNOX1 Membranes
All solutions were placed on ice and protected from light.
The NADPH was dissolved in water at a concentration of 12 mM and was transferred in a metal transfer plate kept at 4° C. The NADPH was added to the assay plate to initiate the reaction just before the measurement.
Serial dilution (1:3, 10 serial dilution) of the compounds was performed in 100% DMSO in 96 well polypropylene plate—Row B-H […], Row A, Column 1-10 contained reference compound. Starting concentration was 10^−2 M (10 mM). Final concentration in assay was 10^−4 M (100 μM). Compounds were diluted twice in PBS buffer by transferring 30 μl/well of PBS into 30 μl/well compounds sample in DMSO using Zephyr® Compact Liquid Handling Workstation. Control wells-columns 1 and 12-contained 60 μl DMSO in 50% PBS pH7.
Reaction mixture is dispensed using Zephyr® Compact Liquid Handling Workstation. 90 μl of mix with membrane were dispensed into 96 well black plates—Column 2-11, Column 1 Row A-D, Column 12 Row E-H. 90 μl of control mix were dispensed into assay plate—Column 1 Row E-H, Column 12 Row A-D, which are wells for measuring background signal. 2 μl of compounds were dispensed into each well of assay plate using Zephyr® Compact Liquid Handling Workstation. The reaction mixture with compounds was incubated in assay plates for 20 min at 37° C. in a Titramax microplate incubator with gentle agitation. 10 μl of NADPH is dispensed to the assay plate. Fluorescence reading was recorded with the FLUOstar OPTIMA microplate reader for 10 min at 37° C. (8 cycles, 1 cycle duration 55 sec).
A word on the pKi: it is the Ki on a negative log10 scale, so that one unit is a factor of ten. On to `Cc1nc(O[C@@H](C)c2ccccc2)ccc1C(=O)Nc1nnc(-c2ccncc2)s1` [(43)], for which the pKi is 7.10.
The result for `Cc1nc(OCc2ccccc2)ccc1C(=O)Nc1nnc(-c2ccncc2)s1` [(45)] reads 7.11.
`COc1cc(C(=O)Nc2nnc(-c3ccncc3)s2)cnc1O[C@@H](C)c1ccccn1` [(46)]: the pKi was 7.46.
With `C[C@H](Oc1ncc(C(=O)Nc2nnc(-c3ccncc3)s2)cc1NCCN(C)C)c1ccccc1` [(51)], the pKi was 7.68.
With `C[C@H](Oc1ncc(C(=O)Nc2nnc(-c3ccncc3)s2)cc1NCC1CCOCC1)c1ccccc1` [(52)] the figure was 7.74.
The result for `C[C@H](Oc1ncc(C(=O)Nc2nnc(-c3ccncc3)s2)cc1NCC1CCN(C)CC1)c1ccccc1` [(53)] reads 7.72; that for `C[C@H](Oc1ncc(C(=O)Nc2nnc(-c3ccncc3)s2)cc1NCCCN(C)C)c1ccccc1` [(63)], 7.51.
Regarding `C[C@H](Oc1ncc(C(=O)Nc2nnc(-c3ccncc3)s2)cc1NCCO)c1ccccc1` [(65)], the pKi is 7.29.
Turning to `C[C@H](Oc1ncc(C(=O)Nc2nnc(-c3ccncc3)s2)cc1NCc1cn(C)cn1)c1ccccc1` [(66)], the pKi is 7.18.
The result for `C[C@H](Oc1ncc(C(=O)Nc2nnc(-c3ccncc3)s2)cc1NC1CCN(C)CC1)c1ccccc1` [(67)] reads 7.12; that for `C[C@H](Oc1ncc(C(=O)Nc2nnc(-c3ccncc3)s2)cc1NCCN1CCOCC1)c1ccccc1` [(68)], 7.14.
`C[C@H](Oc1ncc(C(=O)Nc2nnc(-c3ccncc3)s2)cc1N1CCN(C)CC1)c1ccccc1` [(69)]: the pKi was 7.26.
With `CNc1cc(C(=O)Nc2nnc(-c3ccncc3)s2)cnc1O[C@@H](CCN(C)C)c1ccccc1` [(75)] the figure was 7.05; with `COc1cc(C(=O)Nc2nnc(-c3ccncc3)s2)ccc1O[C@@H]1CCc2ccccc21` [(80)], 7.57.
With `COc1cc(C(=O)Nc2nnc(-c3ccncc3)s2)ccc1OC1CCCc2ccccc21` (stereo not drawn) [(82)] the figure was 7.42.
Take `COc1cc(C(=O)Nc2nnc(-c3ccncc3)s2)ccc1OCc1cscn1` [(83)]: the pKi is 7.10.
The result for `CC(Oc1ccc(C(=O)Nc2nnc(-c3ccncc3)s2)cc1OCCN(C)C)c1ccccc1` (stereo not drawn) [(85)] reads 7.43.
The result for `COCCOc1cc(C(=O)Nc2nnc(-c3ccncc3)s2)ccc1OC(C)c1ccccc1` (stereo not drawn) [(86)] reads 7.13; that for `COc1cc(C(=O)Nc2nnc(-c3ccncc3)s2)ccc1OCc1cccnc1C` [(89)], 7.04.
Turning to `COc1cc(C(=O)Nc2nnc(-c3ccncc3)s2)ccc1OCc1ccc(C)cn1` [(90)], the negative-log Ki (pKi) is 7.00.
For `COc1cc(C(=O)Nc2nnc(-c3ccncc3)s2)ccc1OCc1cc(C)on1` [(91)], the pKi is 7.11.
With `COc1ccc(COc2ccc(C(=O)Nc3nnc(-c4ccncc4)s3)cc2OC)cc1` [(92)] the figure was 7.49; with `COc1cc(C(=O)Nc2nnc(-c3ccncc3)s2)ccc1OCc1ccccc1F` [(93)], 7.28.
With `COc1cc(C(=O)Nc2nnc(-c3ccncc3)s2)ccc1OCc1ccc(F)cc1` [(96)] the figure was 7.85.
`COc1cc(C(=O)Nc2nnc(-c3ccncc3)s2)ccc1OCc1cc(C2CC2)on1` [(98)]: the pKi is 7.13.
As for `COc1cc(C(=O)Nc2nnc(-c3ccncn3)s2)ccc1O[C@@H](C)c1ccccn1` [(102)], the negative logarithm of the Ki (pKi) was 7.06.
Consider `COc1cc(C(=O)Nc2nnc(-c3ccncc3F)s2)ccc1O[C@@H](C)c1ccccn1` [(103)], for which the pKi was 7.89.
As for `COc1cc(C(=O)Nc2nnc(-c3ccncc3F)s2)ccc1O[C@@H](CO)c1ccccc1` [(105)], the pKi was 7.72.
The result for `COc1cc(C(=O)Nc2nnc(-c3ccncc3F)s2)ccc1O[C@@H](CN(C)C)c1ccccc1` [(106)] reads 7.66; that for `O=C(Nc1nnc(-c2ccncc2)s1)c1cnc(O[C@@H](CO)c2ccccc2)c(Cl)c1` [(108)], 7.04; that for `COc1cc(C(=O)Nc2nnc(-c3ccncn3)s2)ccc1OCc1ccccc1` [(111)], 7.12.
With `COc1cc(C(=O)Nc2nnc(-c3ccncn3)s2)cnc1O[C@@H](CN(C)C)c1ccccc1` [(114)] the figure was 7.43; with `COc1cc(C(=O)Nc2nnc(-c3ccnc(C)c3)s2)ccc1O[C@@H](CN(C)C)c1ccccc1` [(115)], 6.96.
In the case of `COc1cc(C(=O)Nc2nnc(-c3ccncc3)s2)ccc1O[C@@H](C)Cc1ccccc1` [(116)], the pKi is 7.34.
With `COc1cc(C(=O)Nc2nnc(-c3ccncc3)s2)ccc1CN(C)c1ccccn1` [(120)] the figure was 7.03; with `COc1cc(C(=O)Nc2nnc(-c3ccncc3)s2)ccc1Cn1ccc2ccccc21` [(121)], 7.46.
With `CCC(Oc1ccc(C(=O)Nc2nnc(-c3ccncc3)s2)cn1)c1ccccc1` (stereo not drawn) [(134)] the figure was 7.15; with `O=C(Nc1nnc(-c2ccncc2)s1)c1ccc(OC2CCc3ccccc32)nc1` (stereo not drawn) [(136)], 7.33.
With `C[C@H](Nc1ccc(C(=O)Nc2nnc(-c3ccncc3)s2)cn1)c1ccccc1` [(149)] the figure was 7.11.
Take `COc1cc(C(=O)Nc2nnc(-c3ccncc3)s2)ccc1OC1CCc2ncccc21` (stereo not drawn) [(151)]: the pKi is 7.82.
As to `COc1cc(C(=O)Nc2nnc(-c3ccncc3)s2)ccc1OC1COc2ccccc21` (stereo not drawn) [(152)], the pKi is 7.42.
With `COc1cc(C(=O)Nc2nnc(-c3ccncc3)s2)ccc1OC(c1ccccc1)C1CC1` (stereo not drawn) [(154)] the figure was 7.48; with `COc1cc(C(=O)Nc2nnc(-c3ccncn3)s2)ccc1O[C@@H](C)c1ccccc1` [(157)], 6.96.
On to `COc1cc(C(=O)Nc2nnc(-c3ccncc3)s2)ccc1OC1Cc2ccccc2C1` [(158)], for which the pKi was 7.66.
With `COc1cc(C(=O)Nc2nnc(-c3ccncc3)s2)ccc1OCCc1ccccc1` [(161)] the figure was 7.10.
With `COc1cc(C(=O)Nc2nnc(-c3ccncc3)s2)ccc1OCc1ccn(C)n1` [(162)], the pKi was 7.02.
With `O=C(Nc1nnc(-c2ccncc2)s1)c1ccc(OCc2ccccc2)cc1F` [(168)] the figure was 7.00; with `CN(C)C(=O)[C@H](Cc1ccccc1)Oc1ccc(C(=O)Nc2nnc(-c3ccncc3)s2)cn1` [(174)], 7.02; with `C[C@H](COc1ccc(C(=O)Nc2nnc(-c3ccncc3)s2)cn1)c1ccccc1` [(178)], 7.07.
For the compound `COc1ccc(CCCOc2ccc(C(=O)Nc3nnc(-c4ccncc4)s3)cn2)cc1` [(180)], the pKi is 7.49.
With `Cc1cc(C(=O)Nc2nnc(-c3ccncc3)s2)cnc1O[C@@H](CN1CCOCC1)c1ccccc1` [(182)] the figure was 7.43; with `COCC(Oc1ccc(C(=O)Nc2nnc(-c3ccncc3)s2)cc1OC)c1ccccc1` (stereo not drawn) [(183)], 7.26.
The result for `COc1cc(C(=O)Nc2nnc(-c3ccncc3)s2)ccc1O[C@H](CN1CCOCC1)c1ccccc1` [(185)] reads 7.05; that for `O=C(Nc1nnc(-c2ccncc2)s1)c1ccc(O[C@@H](CN2CCC(F)(F)C2)c2ccccc2)nc1` [(187)], 7.26.
For `COc1cc(C(=O)Nc2nnc(-c3ccncc3)s2)ccc1O[C@@H](CO)c1ccc(F)cc1` [(197)], the pKi is 7.62.
With `COc1cc(C(=O)Nc2nnc(-c3ccncc3)s2)ccc1O[C@@H](CN(C)C)c1ccc(F)cc1` [(198)] the figure was 7.60; with `COc1cc(C(=O)Nc2nnc(-c3ccncc3)s2)ccc1O[C@H](CO)c1ccc(F)cc1` [(199)], 7.33.

These data come from patent publication US10130619B2, “Amido thiadiazole derivatives as NADPH oxidase inhibitors” (GENKYOTEX SUISSE SA, priority 2014, dated 2018).
